Tests used:
[1] = molecular target: IKKe (Homo sapiens (Human), UniProt Q14164); assay: IKKe Biochemical Assay
Method in brief: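 Human IKKε activity was measured with compounds in a 10-point 1:4 dilution series, top concentration 30 uM final, in 1% DMSO final; 10 uM staurosporine served as the control. Enzyme and substrate were incubated 90 min at 25° C, then stopped, and substrate/product peaks were separated by microfluidic mobility-shift on a LabChip EZ Reader II.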

[2] = molecular target: TBK1 (Homo sapiens (Human), UniProt Q9UHD2); assay: TBK Biochemical Assay
Chain of TBK1 (Q9UHD2 whole entry, species assumed): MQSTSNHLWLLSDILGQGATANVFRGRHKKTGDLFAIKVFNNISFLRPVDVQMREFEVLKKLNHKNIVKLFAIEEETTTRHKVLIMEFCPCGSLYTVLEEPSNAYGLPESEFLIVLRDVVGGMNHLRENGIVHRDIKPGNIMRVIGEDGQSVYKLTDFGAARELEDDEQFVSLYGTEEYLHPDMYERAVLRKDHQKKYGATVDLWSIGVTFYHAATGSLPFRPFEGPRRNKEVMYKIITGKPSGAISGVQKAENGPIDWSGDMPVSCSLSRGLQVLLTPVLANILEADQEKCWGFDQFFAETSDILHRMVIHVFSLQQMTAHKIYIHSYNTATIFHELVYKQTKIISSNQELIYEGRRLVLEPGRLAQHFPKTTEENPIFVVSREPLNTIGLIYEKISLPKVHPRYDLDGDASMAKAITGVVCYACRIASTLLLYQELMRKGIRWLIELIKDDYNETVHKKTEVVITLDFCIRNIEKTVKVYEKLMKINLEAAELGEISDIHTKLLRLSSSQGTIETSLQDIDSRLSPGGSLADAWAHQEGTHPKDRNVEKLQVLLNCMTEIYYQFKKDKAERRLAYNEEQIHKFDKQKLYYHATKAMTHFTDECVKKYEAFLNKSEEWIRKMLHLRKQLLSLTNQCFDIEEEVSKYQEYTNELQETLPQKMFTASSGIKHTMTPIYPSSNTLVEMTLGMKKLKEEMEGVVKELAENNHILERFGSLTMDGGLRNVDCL
Method in brief: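 Enzyme and substrate with compound (10-point 1:4 series, top 30 uM final, 1% DMSO) incubated 90 min at 25 °C, then stopped; substrate/product separated and read by LabChip mobility-shift, staurosporine 10 uM final as full-inhibition control.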

Chain of IKKe (Q14164 whole entry, species assumed): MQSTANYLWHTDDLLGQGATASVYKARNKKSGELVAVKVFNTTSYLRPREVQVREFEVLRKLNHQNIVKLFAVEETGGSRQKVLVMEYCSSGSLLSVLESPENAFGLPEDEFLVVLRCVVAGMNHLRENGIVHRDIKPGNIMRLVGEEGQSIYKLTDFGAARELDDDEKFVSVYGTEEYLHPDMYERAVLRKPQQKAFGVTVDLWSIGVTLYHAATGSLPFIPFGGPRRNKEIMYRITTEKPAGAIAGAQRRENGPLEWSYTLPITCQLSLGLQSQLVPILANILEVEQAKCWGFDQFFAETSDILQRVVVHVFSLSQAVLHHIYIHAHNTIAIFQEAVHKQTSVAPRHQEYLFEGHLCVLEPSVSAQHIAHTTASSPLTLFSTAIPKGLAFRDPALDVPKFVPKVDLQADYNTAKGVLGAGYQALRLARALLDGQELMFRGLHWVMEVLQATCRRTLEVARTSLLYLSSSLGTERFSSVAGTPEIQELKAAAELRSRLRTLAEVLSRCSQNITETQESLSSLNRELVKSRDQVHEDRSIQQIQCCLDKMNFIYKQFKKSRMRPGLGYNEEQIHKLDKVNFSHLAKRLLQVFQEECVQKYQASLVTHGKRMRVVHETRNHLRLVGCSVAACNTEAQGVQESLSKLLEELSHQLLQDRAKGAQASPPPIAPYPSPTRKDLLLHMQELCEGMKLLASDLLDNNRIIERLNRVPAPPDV

Structure (SMILES)	IC50 [1]	IC50 [2]
C[C@@H](O)C(=O)N1CCC(Oc2ccc(-c3cc(Nc4ccc(N5CCN(C6COC6)CC5)cc4)ncn3)cc2C#N)C(F)(F)C1 (stereo partly drawn) [Example 86, 2-([3,3-difluoro-1-[(2R)-2-hydroxypropanoyl]piperidin-4-yl]oxy)-5-[6-([4-[4-(oxetan-3-yl)piperazin-1-yl]phenyl]amino)pyrimidin-4-yl]benzonitrile]	100 to 1000 nM	< 100 nM
COc1nc(Nc2cc(-c3ccc(NC4CCOCC4)c(C#N)c3)ncn2)ccc1C(=O)N(C)C [Example 87, 6-[(6-[3-cyano-4-[(oxan-4-yl)amino]phenyl]pyrimidin-4-yl)amino]-2-methoxy-N,N-dimethylpyridine-3-carboxamide]	100 to 1000 nM	< 100 nM
COc1nc(Nc2cc(-c3ccc(OC4CCOCC4)c(C#N)c3)ncn2)ccc1C(=O)NC1CN2CCC1CC2 (stereo not shown) [Example 89, 6-((6-(3-cyano-4-((tetrahydro-2H-pyran-4-yl)oxy)phenyl)pyrimidin-4-yl)amino)-2-methoxy-N-(quinuclidin-3-yl)nicotinamide]	< 100 nM	< 100 nM
COc1nc(Nc2cc(-c3ccc(OC4CCOCC4)c(C#N)c3)ncn2)ccc1C(=O)N1C2CCCC1COC2 [Example 90, 5-(6-[[6-methoxy-5-([3-oxa-9-azabicyclo[3.3.1]nonan-9-yl]carbonyl)pyridin-2-yl]amino]pyrimidin-4-yl)-2-(oxan-4-yloxy)benzonitrile]	< 100 nM	< 100 nM
COc1nc(Nc2cc(-c3ccc(O[C@@H]4CCN(C(=O)[C@@H](C)O)CC4(F)F)c(C#N)c3)ncn2)ccc1N1CCN(C2COC2)C[C@@H]1C [Example 98, 2-((R)-3,3-difluoro-1-((R)-2-hydroxypropanoyl)piperidin-4-yloxy)-5-(6-(6-methoxy-5-((S)-2-methyl-4-(oxetan-3-yl)piperazin-1-yl)pyridin-2-ylamino)pyrimidin-4-yl)benzonitrile]	< 100 nM	< 100 nM
COc1nc(Nc2cc(-c3ccc(O[C@H]4CCN(C(=O)[C@@H](C)O)CC4(F)F)c(C#N)c3)ncn2)ccc1N1CCN(C2COC2)C[C@@H]1C [Example 99, 2-((S)-3,3-difluoro-1-((R)-2-hydroxypropanoyl)piperidin-4-yloxy)-5-(6-(6-methoxy-5-((S)-2-methyl-4-(oxetan-3-yl)piperazin-1-yl)pyridin-2-ylamino)pyrimidin-4-yl)benzonitrile]	< 100 nM	< 100 nM
COc1nc(Nc2cc(-c3ccc(OC4CCOCC4)c(C#N)c3)ncn2)ccc1N1CCN(C2COC2)CC1 [Example 100, 5-[6-({6-methoxy-5-[4-(oxetan-3-yl)piperazin-1-yl]pyridin-2-yl}amino)pyrimidin-4-yl]-2-(oxan-4-yloxy)benzonitrile]	< 100 nM	< 100 nM
COc1nc(Nc2cc(-c3ccc(O[C@H]4CCN(C(=O)[C@H](C)O)CC4(F)F)c(C#N)c3)ncn2)ccc1N1CCN(C2COC2)C[C@@H]1C [Example 101, 2-[[(4S)-3,3-difluoro-1-[(2S)-2-hydroxypropanoyl]piperidin-4-yl]oxy]-5-[6-([6-methoxy-5-[(2S)-2-methyl-4-(oxetan-3-yl)piperazin-1-yl]pyridin-2-yl]amino)pyrimidin-4-yl]benzonitrile]	< 100 nM	< 100 nM

The remaining lines, values ahead:

IC50 [1]	IC50 [2]	Structure (SMILES)
< 100 nM	< 100 nM	COc1nc(Nc2cc(-c3ccc(OC4CCN(C(=O)[C@H](C)O)CC4(F)F)c(C#N)c3)ncn2)ccc1C1CCN(C2COC2)CC1 (stereo partly drawn) [Example 84, 2-([3,3-difluoro-1-[(2S)-2-hydroxypropanoyl]piperidin-4-yl]oxy)-5-[6-([6-methoxy-5-[1-(oxetan-3-yl)piperidin-4-yl]pyridin-2-yl]amino)pyrimidin-4-yl]benzonitrile]
< 100 nM	< 100 nM	C[C@H](O)C(=O)N1CCC(Oc2ccc(-c3cc(Nc4ccc(N5CCN(C6COC6)CC5)cc4)ncn3)cc2C#N)C(F)(F)C1 (stereo partly drawn) [Example 85, 2-([3,3-difluoro-1-[(2S)-2-hydroxypropanoyl]piperidin-4-yl]oxy)-5-[6-([4-[4-(oxetan-3-yl)piperazin-1-yl]phenyl]amino)pyrimidin-4-yl]benzonitrile]
< 100 nM	< 100 nM	COc1nc(Nc2cc(-c3ccc(OC4CCOCC4)c(C#N)c3)ncn2)ccc1C(=O)NCCO [Example 88, 6-([6-[3-cyano-4-(oxan-4-yloxy)phenyl]pyrimidin-4-yl]amino)-N-(2-hydroxyethyl)-2-methoxypyridine-3-carboxamide]
< 100 nM	< 100 nM	COc1nc(Nc2cc(-c3ccc(O[C@H]4CCN(C(=O)[C@H](C)O)CC4(F)F)c(C#N)c3)ncn2)ccc1N1CCN(C2COC2)CC1 [Example 91, 2-[[(4S)-3,3-difluoro-1-[(2S)-2-hydroxypropanoyl]piperidin-4-yl]oxy]-5-[6-([6-methoxy-5-[4-(oxetan-3-yl)piperazin-1-yl]pyridin-2-yl]amino)pyrimidin-4-yl]benzonitrile]
< 100 nM	< 100 nM	COc1nc(Nc2cc(-c3ccc(O[C@@H]4CCN(C(=O)[C@H](C)O)CC4(F)F)c(C#N)c3)ncn2)ccc1N1CCN(C2COC2)CC1 [Example 92, 2-[[(4R)-3,3-difluoro-1-[(2S)-2-hydroxypropanoyl]piperidin-4-yl]oxy]-5-[6-([6-methoxy-5-[4-(oxetan-3-yl)piperazin-1-yl]pyridin-2-yl]amino)pyrimidin-4-yl]benzonitrile]
< 100 nM	< 100 nM	COc1nc(Nc2cc(-c3ccc(O[C@H]4CCN(C(=O)[C@H](C)O)CC4(F)F)c(C#N)c3)ncn2)ccc1C1CCN(C2COC2)CC1 [Example 93, 2-[[(4S)-3,3-difluoro-1-[(2S)-2-hydroxypropanoyl]piperidin-4-yl]oxy]-5-[6-([6-methoxy-5-[1-(oxetan-3-yl)piperidin-4-yl]pyridin-2-yl]amino)pyrimidin-4-yl]benzonitrile]
< 100 nM	< 100 nM	COc1nc(Nc2cc(-c3ccc(O[C@@H]4CCN(C(=O)[C@H](C)O)CC4(F)F)c(C#N)c3)ncn2)ccc1C1CCN(C2COC2)CC1 [Example 94, 2-[[(4R)-3,3-difluoro-1-[(2S)-2-hydroxypropanoyl]piperidin-4-yl]oxy]-5-[6-([6-methoxy-5-[1-(oxetan-3-yl)piperidin-4-yl]pyridin-2-yl]amino)pyrimidin-4-yl]benzonitrile]
< 100 nM	< 100 nM	COc1nc(Nc2cc(-c3ccc(O[C@H]4CCN(C(=O)[C@@H](C)O)CC4(F)F)c(C#N)c3)ncn2)ccc1N1CCN(C2COC2)CC1 [Example 95, 2-[[(4S)-3,3-difluoro-1-[(2R)-2-hydroxypropanoyl]piperidin-4-yl]oxy]-5-[6-([6-methoxy-5-[4-(oxetan-3-yl)piperazin-1-yl]pyridin-2-yl]amino)pyrimidin-4-yl]benzonitrile]
< 100 nM	< 100 nM	COc1nc(Nc2cc(-c3ccc(OC4CCN(C(=O)[C@@H](C)O)CC4(F)F)c(C#N)c3)ncn2)ccc1C1CCN(C2COC2)CC1 (stereo partly drawn) [Example 97, 2-([3,3-difluoro-1-[(2R)-2-hydroxypropanoyl]piperidin-4-yl]oxy)-5-[6-([6-methoxy-5-[1-(oxetan-3-yl)piperidin-4-yl]pyridin-2-yl]amino)pyrimidin-4-yl]benzonitrile]

Reference: patent US11440899B2, “Pyrimidine TBK/IKKe inhibitor compounds and uses thereof” (Merck Patent GmbH, priority 2017, dated 2022)
